The values that follow come from US11083795B2, “Amorphous metal-organic frameworks” (Cambridge Enterprise Limited, priority 2015, dated 2021).

Data set [1] deals with HeLa cells. Put plainly: Drug cellular uptake by confocal microscopy. To be noted: 24 h incubation; frameworks 0.5 mg/mL, free calcein 0.075 mg/mL. In kind it is cell-based. How it is done:
HeLa cells were seeded in a NUNC™ imaging four-well plate at a density of 1.11×10^5 cell/mL and incubated for 24 h at 37° C. with 5% CO2 in DMEM supplemented with 10% (v/v) Fetal Bovine Serum (FBS), 2 mM L-glutamine, 100 units/mL penicillin and 100 μg/mL streptomycin.
The cells were washed twice with PBS and incubated together with calcein-loaded crystalline Zr-containing metal-organic frameworks (0.5 mg/mL) for 24 h. The amorphous frameworks were obtained by mechanical amorphization of calcein-loaded crystalline Zr-containing metal-organic frameworks. The metal-organic frameworks were well-dispersed in culture media before they were added to the cells.
Untreated cell and free calcein (at a concentration of 0.075 mg/mL) were included as controls.
After incubation for 24 h, the cells were washed several times to remove the non-internalized particles. Cells then were incubated for 15 min with Hoechst 33342 (H33342) and 1× of CellMask™ Orange to stain the nucleus and cell membrane, respectively (each dye provided at a concentration of 5 μg/mL). The cells were then washed extensively to remove the dyes and fresh media (without phenol red) was added to each sample. Finally, the plate was placed on a Leica TCS SP5 confocal microscope for imaging. The microscope was equipped with 405 diode, argon and HeNe lasers. Leica LAS AF software was used to analyse the images.

The test system of data set [2] is rat. Further details: lethal dose LD50: unit not given here. To be noted: cited from earlier work.

Take `O=C(O)CN(CC(=O)O)Cc1cc2c(cc1O)Oc1cc(O)c(CN(CC(=O)O)CC(=O)O)cc1C21OC(=O)c2ccccc21` [calcein]: the “calcein signal in HeLa cells by confocal microscopy” value in data set [1] is reported as “stained weakly in the form of bright vesicles”. Take `CC(=O)[O-].CC(=O)[O-].[O-2].[Zr+4]` [zirconyl acetate]: in data set [2] (in rats), the “lethal dose LD50” value is listed as around 4.1. For the same compound, the “oral lethal dose, LD50” value in data set [2] (oral, rat model) is on record as “around 4.1 g/kg”.
